From EPA's ToxRefDB 2

Assays:
[1] = tested on: rat; settings: Subchronic oral toxicity in rodents, sprague dawley, Feed, dose end: 90 day, group: systemic
[2] = tested on: rat; settings: Multigenerational reproductive toxicity study, sprague dawley, Oral, Feed, dose end: 2 generation
[3] = tested on: dog; settings: Chronic toxicity; beagle; Oral; Feed; dose end: 52 week; group: systemic; systemic / hematology / nucleated red blood cell (nrbc) / nucleated red blood cell (nrbc) + systemic / in life observation / clinical signs…
[4] = tested on: rat; settings: Subchronic oral toxicity in rodents, wistar, Feed, dose end: 90 day, group: systemic, systemic / in life observation / clinical signs / motor activity + systemic / organ weight / kidney / relative to body weight + systemic / …
[5] = tested on: rat; settings: Prenatal developmental toxicity study, Oral, Gavage/Intubation, dose end: 19 GD
[6] = tested on: rabbit; settings: Prenatal developmental toxicity study; new zealand white; Oral; Gavage/Intubation; dose end: 18 GD; group: maternal; systemic / in life observation / body weight / body weight gain
[7] = tested on: rat; settings: Chronic toxicity, fischer, Oral, Gavage/Intubation, dose end: 1 year, group: systemic
[8] = tested on: mouse; settings: Subchronic oral toxicity in rodents, b6c3f1, Gavage/Intubation, dose end: 13 week, group: systemic
[9] = tested on: mouse; settings: Carcinogenicity; cd1; Oral; Gavage/Intubation; dose end: 104 week; group: systemic; systemic / pathology microscopic / gallbladder / adenoma + systemic / pathology microscopic / gallbladder / hemangioma + systemic / …
[10] = tested on: rat; settings: Subchronic oral toxicity in rodents, fischer, Gavage/Intubation, dose end: 90 day, group: systemic, systemic / clinical chemistry / cholesterol / cholesterol + systemic / in life observation / food consumption / food consumption + systemic…
[11] = systemic / clinical chemistry / alanine aminotransferase (alt/sgpt) / alanine aminotransferase (alt/sgpt)
[12] = systemic / pathology gross / stomach / discolored + systemic / pathology gross / stomach / foci + systemic / pathology gross / stomach / …
[13] = group: offspring, systemic / in life observation / body weight / offspring (pup) weight + systemic / pathology gross / heart / enlarged + systemic / pathology…
[14] = group: parental, systemic / in life observation / clinical signs / dental fluorosis
[15] = group: parental, systemic / in life observation / clinical signs / dental fluorosis + systemic / in life observation / clinical signs / teeth whitening
[16] = group: developmental, systemic / in life observation / body weight / fetal weight + developmental / developmental malformation / bone / unossified + developmental…
[17] = group: maternal, reproductive / reproductive performance / resorptions / resorptions + systemic / in life observation / body weight / body weight + systemic…
[18] = systemic / in life observation / body weight / body weight
[19] = systemic / in life observation / body weight / body weight + systemic / organ weight / adrenal gland / relative to body weight + systemic / …
[20] = systemic / clinical chemistry / fatty acids / fatty acid + systemic / pathology microscopic / bone marrow / hypocellularity + systemic / …
[21] = systemic / pathology microscopic / liver / hypertrophy

Compound `[F][Al-3]([F])([F])([F])([F])[F].[Na+].[Na+].[Na+]` [Cryolite] has an LEL [1, 11] of 4.5 mg/kg/day, an NEL [1, 11] of under 4.5 mg/kg/day and an LOAEL [1, 12] of 399 mg/kg/day. It also gave an NOAEL [1, 12] of 3.8 mg/kg/day, an LOAEL ([2]; group: offspring, systemic / in life observation / body weight / offspring (pup) weight) of 128 mg/kg/day and an LEL [2, 13] of 128 mg/kg/day. It also gave an NEL [2, 13] of 42 mg/kg/day, an NOAEL [2, 13] of 42 mg/kg/day and an LOAEL [2, 14] of 14 mg/kg/day. It also gave an NOAEL [2, 14] of under 14 mg/kg/day, an LEL [2, 15] of 14 mg/kg/day and an NEL [2, 15] of under 14 mg/kg/day. It also gave an LEL [3] of 95 mg/kg/day, an LOAEL [3] of 95 mg/kg/day and an NEL [3] of under 95 mg/kg/day. The NOAEL [3] was under 95 mg/kg/day.

In the case of `Cc1cc(Cl)ccc1OCC(=O)OCCCCCC(C)C` [MCPA-isooctyl], the LEL [4] is reported as 54 mg/kg/day, the LOAEL [4] is reported as 54 mg/kg/day and the NEL [4] is reported as 5 mg/kg/day. For the same compound, the NOAEL [4] was 5 mg/kg/day, the LEL ([5]; group: developmental, developmental / developmental malformation / bone / ossification sites) was 40 mg/kg/day and the LOAEL [5, 16] was 120 mg/kg/day. The NEL [5, 16] was 15 mg/kg/day, the NOAEL [5, 16] was 40 mg/kg/day and the LEL [5, 17] was 120 mg/kg/day. For the same compound, the LOAEL [5, 17] was 120 mg/kg/day, the NEL [5, 17] was 40 mg/kg/day and the NOAEL [5, 17] was 40 mg/kg/day.

In the case of `Cc1cccc(C)c1NC(=O)CC12CCCN1CCC2.Cl` [Pilsicainide hydrochloride], the LEL [6] is reported as 10 mg/kg/day, the LOAEL [6] is reported as over 20 mg/kg/day and the NEL [6] is reported as 5 mg/kg/day. It also gave an NOAEL [6] of at least 20 mg/kg/day.

Compound `Cc1c(C)c2c(c(C)c1O)CCC(C)(COc1ccc(CC3SC(=O)NC3=O)cc1)O2` (stereo not drawn) [Troglitazone] has an LEL [7, 18] of 25 mg/kg/day, an NEL [7, 18] of under 25 mg/kg/day and an LOAEL [7, 19] of over 100 mg/kg/day. The NOAEL [7, 19] was at least 100 mg/kg/day, the LOAEL [8, 20] was over 1200 mg/kg/day and the NOAEL [8, 20] was at least 1200 mg/kg/day. The LEL [8, 21] was 50 mg/kg/day, the NEL [8, 21] was under 50 mg/kg/day and the LEL [9] was 50 mg/kg/day. For the same compound, the LOAEL [9] was over 50 mg/kg/day, the NEL [9] was 4 mg/kg/day and the NOAEL [9] was at least 50 mg/kg/day. For the same compound, the LEL [10] was 20 mg/kg/day, the LOAEL [10] was over 2500 mg/kg/day and the NEL [10] was under 20 mg/kg/day. It also gave an NOAEL [10] of at least 2500 mg/kg/day.
